In assay [1] the target is T1, telomerase (MCF-7 cell lysates) (Homo sapiens, UniProt O14746).
T1 construct: endogenous in cells; host or cells: MCF-7
The assay can be described thus: TRAP assay in cell lysates (PCR-based telomerase activity assay). The format is biochemical. The settings on record: TRAP assay. The source says: In developing a preliminary structural activity relationship (SAR) for the chrologs, we divided the structure of the pyran into four main components: (1)C-2 substituents (carboxylic acid of chrolactomycin); (2) C-6 substituents (chrolactomycin macrolide loop); (3) C-3 substituents (fused γ-lactone of chrolactomycin) and (4) inclusion of the exocyclic methylene group. We carried out systematic modifications of each structural unit and evaluated the effects on telomerase activity as measured by a PCR-based telomerase activity assay (TRAP assay).^16
Telomeric Repeat Amplification Protocol Assay. The telomeric repeat amplification protocol (TRAP) assay was performed using the TRAPeze RT Telomerase Detection Kit (EMD Millipore) and iTaq DNA polymerase (Bio-Rad) according to the manufacturer's protocol.
Cell Lysate TRAP Analysis. MCF-7, HeLa, ACHN, MDA-MB231 and A549 cells were cultured in DMEM media supplemented with 10% Fetal Bovine Serum (FBS), 1% pen/strep and with 5% CO2 and 37° C. Cells were plated in 2×T75 flasks and cultured for 3 days. Flasks were rinsed twice with PBS and treated with 0.05% trypsin-EDTA (Thermo Fisher) to detach cells. […] Cell extracts were transferred to microcentrifuge tubes, 200 μl/tube, and centrifuged at 12,000×g for 20 min at 4° C. to remove cell debris. Stock solutions of compounds were made in DMSO with a concentration of 100 mM and a […] dilution was performed in DMSO in a 96-well plate to produce compound solutions of 100, 10, 1, 0.1, 0.01, and 0.001 mM (1000× of the final concentration). The 1000× stock solutions of the compound samples were transferred to a 96-well plate using the Echo 550 (Labcyte) and then diluted with the cell extracts to yield final compound concentrations of 100, 10, 1, 0.1, 0.01, and 0.001 μM. The plate was covered and shaken at room temperature for 30 min. For TRAPeze reactions, a “master mix” was prepared according to the TRAPeze protocol, containing 5 μl of the TRAPeze reaction mix; 0.4 μl Taq polymerase; 17.6 μl PCR grade, nuclease-free water. The master mix and treated cell extracts were transferred using the Mosquito Crystal Liquid Handling System (TTP Labtech) into separate wells in a white, 384-well RT-PCR plate. Each well contained 1.2 μl of the master mix and 1.2 μl of the treated cell extract to give a final volume of 2.4 μl, with two duplicates for each sample. The RT-PCR plate was then sealed and centrifuged for 5 min. A sample containing only CHAPS Lysis Buffer was included as negative control. The TSR8 standards were included to generate a standard curve. Samples were amplified in a CFW384 RT-PCR (BioRad) detection system with PCR parameters of 30 min at 30° C. for 1 cycle, 2 min at 95° C. for 1 cycle, and then 45 cycles of 15 s at 94° C., 60 s at 59° C., and 10 s at 45° C. Real-time fluorescent data was obtained during the 10 s at 45° C. step. The number of cycles at which the fluorescence level reached a threshold (Ct) was averaged between the duplicates for each sample. Using a calibration curve obtained from the TSR8 standards, a linear equation was obtained to convert the Ct values into arbitrary telomerase activity units, which were plotted as a function of compound concentration to construct dose-response curves and calculate IC50.

Another assay relates to tcTERT. Put plainly: Protease digestion and mass spectrometry of treated tcTERT. Format: binding, Tribolium castaneum. Particulars: proteolysis and tandem mass spectrometry. How it is done: Protease Digestion and Mass Spectrometry Analysis. tcTERT (50 μg, ˜600 pmol) was treated with chrolactomycin, NU-1, helenalin, costunolide or DMSO for 1 hr at 37° C. The reaction was diluted with ammonium bicarbonate buffer (pH 8.0), then reduced for 30 min at 56° C. with 10 mM DTT. After cooling to 23° C., the protein was alkylated with 25 mM iodoacetamide for 30 min at 23° C. in the dark, followed by trypsin digestion (2.5 μg, Promega) overnight at 37° C. Digested peptides (˜2 pmol) were injected onto a self-packed precolumn (4 cm POROS10R2) and eluted into the mass spectrometer (LTQ Orbitrap Velos, Thermo Fisher). Peptides were subjected to MS^2 by CAD (electron multiplier detection, relative collision energy 35%, q=0.25).

Setting [2] is: MCF-7 cell lysates, read-out: IC50.
Setting [3] is: Table 1, C-2 and C-6 groups, read-out: IC50.
The mark [4] stands for this setting: Table 2, C-3 group, read-out: IC50.

The structures appear in SMILES notation. Where two headings read alike, the source gives them in different places.

T1 sequence (O14746 whole entry): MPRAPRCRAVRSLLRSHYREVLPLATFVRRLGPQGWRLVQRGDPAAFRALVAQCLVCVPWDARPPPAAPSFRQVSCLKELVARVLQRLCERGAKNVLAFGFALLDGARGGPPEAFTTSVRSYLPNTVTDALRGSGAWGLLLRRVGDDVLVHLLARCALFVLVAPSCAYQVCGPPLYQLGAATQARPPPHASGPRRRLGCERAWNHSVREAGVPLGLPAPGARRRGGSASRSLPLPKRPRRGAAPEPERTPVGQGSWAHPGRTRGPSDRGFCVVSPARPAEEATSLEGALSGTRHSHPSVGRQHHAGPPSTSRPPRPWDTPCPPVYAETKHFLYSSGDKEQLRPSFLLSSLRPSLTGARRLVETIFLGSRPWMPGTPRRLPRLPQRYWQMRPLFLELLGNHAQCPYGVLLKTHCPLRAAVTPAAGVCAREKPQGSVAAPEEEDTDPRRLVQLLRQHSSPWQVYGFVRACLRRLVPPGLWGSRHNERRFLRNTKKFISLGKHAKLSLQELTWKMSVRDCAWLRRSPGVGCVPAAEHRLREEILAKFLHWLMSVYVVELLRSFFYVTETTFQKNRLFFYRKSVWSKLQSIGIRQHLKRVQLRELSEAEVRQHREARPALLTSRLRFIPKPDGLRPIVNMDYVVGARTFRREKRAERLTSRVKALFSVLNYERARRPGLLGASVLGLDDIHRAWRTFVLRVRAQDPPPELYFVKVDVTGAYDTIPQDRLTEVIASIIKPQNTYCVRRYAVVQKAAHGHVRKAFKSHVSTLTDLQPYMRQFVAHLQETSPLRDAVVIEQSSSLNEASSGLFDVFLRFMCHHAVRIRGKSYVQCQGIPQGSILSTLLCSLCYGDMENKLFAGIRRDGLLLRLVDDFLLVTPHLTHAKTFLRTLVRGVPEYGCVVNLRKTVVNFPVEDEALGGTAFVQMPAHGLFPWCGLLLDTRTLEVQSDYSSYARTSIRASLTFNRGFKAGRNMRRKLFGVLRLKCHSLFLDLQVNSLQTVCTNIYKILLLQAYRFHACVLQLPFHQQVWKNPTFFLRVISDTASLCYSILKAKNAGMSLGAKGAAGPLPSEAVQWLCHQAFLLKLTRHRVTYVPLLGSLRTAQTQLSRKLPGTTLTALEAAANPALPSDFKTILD
T1 sequence (O60832 whole entry partner): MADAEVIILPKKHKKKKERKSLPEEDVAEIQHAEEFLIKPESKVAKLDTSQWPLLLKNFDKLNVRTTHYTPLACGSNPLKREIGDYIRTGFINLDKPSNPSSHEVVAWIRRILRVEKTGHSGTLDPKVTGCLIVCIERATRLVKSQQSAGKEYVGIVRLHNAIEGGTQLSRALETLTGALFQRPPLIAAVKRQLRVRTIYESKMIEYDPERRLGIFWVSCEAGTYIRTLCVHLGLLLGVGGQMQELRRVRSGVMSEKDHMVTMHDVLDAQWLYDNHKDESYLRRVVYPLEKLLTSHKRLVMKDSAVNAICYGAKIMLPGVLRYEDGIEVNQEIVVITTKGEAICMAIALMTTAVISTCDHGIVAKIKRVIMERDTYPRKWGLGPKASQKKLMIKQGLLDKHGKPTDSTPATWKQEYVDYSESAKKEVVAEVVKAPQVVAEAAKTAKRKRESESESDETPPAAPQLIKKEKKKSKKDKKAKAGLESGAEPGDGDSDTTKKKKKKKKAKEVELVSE
T1 sequence (Q9NPE3 whole entry partner): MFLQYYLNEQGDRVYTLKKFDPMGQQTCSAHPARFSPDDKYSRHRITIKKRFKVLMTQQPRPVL
T1 sequence (Q9NX24 whole entry partner): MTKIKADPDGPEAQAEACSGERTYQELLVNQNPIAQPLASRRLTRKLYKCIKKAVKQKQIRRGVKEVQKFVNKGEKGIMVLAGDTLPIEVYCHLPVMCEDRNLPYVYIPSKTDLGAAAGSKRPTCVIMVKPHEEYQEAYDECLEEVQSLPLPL
T1 sequence (Q9NY12 whole entry partner): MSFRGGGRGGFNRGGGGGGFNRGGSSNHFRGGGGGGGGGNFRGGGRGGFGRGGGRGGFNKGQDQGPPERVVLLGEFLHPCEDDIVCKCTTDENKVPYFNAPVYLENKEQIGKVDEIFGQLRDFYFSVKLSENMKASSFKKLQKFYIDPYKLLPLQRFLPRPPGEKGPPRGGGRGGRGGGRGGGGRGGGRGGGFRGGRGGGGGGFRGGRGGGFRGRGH
T1 sequence (Q9BUR4 whole entry partner): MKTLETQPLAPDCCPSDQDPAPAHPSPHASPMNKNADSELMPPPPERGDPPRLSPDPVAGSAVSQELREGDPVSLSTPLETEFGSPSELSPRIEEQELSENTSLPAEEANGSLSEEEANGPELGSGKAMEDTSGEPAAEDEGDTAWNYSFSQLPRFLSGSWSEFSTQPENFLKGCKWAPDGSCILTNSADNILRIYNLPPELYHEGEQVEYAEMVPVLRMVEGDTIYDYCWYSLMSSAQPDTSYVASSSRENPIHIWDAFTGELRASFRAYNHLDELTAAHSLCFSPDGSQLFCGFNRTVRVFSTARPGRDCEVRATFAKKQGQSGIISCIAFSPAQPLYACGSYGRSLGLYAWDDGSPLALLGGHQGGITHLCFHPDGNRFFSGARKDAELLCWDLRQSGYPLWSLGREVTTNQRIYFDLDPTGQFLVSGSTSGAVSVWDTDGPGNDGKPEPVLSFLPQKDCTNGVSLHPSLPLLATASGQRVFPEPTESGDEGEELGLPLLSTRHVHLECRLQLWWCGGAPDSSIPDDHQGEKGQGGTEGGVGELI

One may read the IC50 as the concentration that inhibits the measured activity by half. With `C=C1C(=O)[C@](C)(C(=O)OC)[C@H](CCc2ccc(NC(C)=O)cc2)O[C@@H]1C` (racemic) [Compound 4a, (±) methyl (2S,3R,6R)-2-(4-acetamidophenethyl)-3,6-dimethyl-5-methylene-4-oxotetrahydro2H-pyran-3-carboxylate], the half-inhibitory concentration (IC50) in assay [1] (setting [2]), in assay [1] (setting [3]) and in assay [1] (setting [4]) was 1.5 µM in each case.

In the case of `C=C1C(=O)[C@](C)(C(=O)OC)[C@H](CCc2ccccc2)O[C@@H]1C` (racemic) [Compound 4b, (±) methyl (2S,3R,6R)-3,6-dimethyl-5-methylene-4-oxo-2-phenethyltetrahydro-2H-pyran-3 carboxylate], in assay [1] (setting [3]), the IC50 is > 100 µM.

As for `C=C1C(=O)[C@](C)(C(=O)OC)[C@H](CC(C)C)O[C@@H]1C` (racemic) [Compound 4c, (±) methyl (2S,3R,6R)-2-isobutyl-3,6-dimethyl-5-methylene-4-oxotetrahydro-2H-pyran-3 carboxylate], in assay [1] (setting [3]), the IC50 was > 100 µM.

`C=C1C(=O)[C@](C)(C(=O)OC)[C@H](CCc2ccc(F)cc2)O[C@@H]1C` (racemic) [Compound 4d, (±) methyl (2S,3R,6R)-2-(4-fluorophenethyl)-3,6-dimethyl-5-methylene-4-oxotetrahydro-2H pyran-3-carboxylate]: in assay [1] (setting [3]), the half-inhibitory concentration (IC50) came out at 42 µM.

Consider `C=C1C(=O)[C@@](C)(C(=O)OC)[C@@H](CCc2ccc(C(F)(F)F)cc2)O[C@H]1C` (racemic) [Compound 4e, (±) methyl (2S,3R,6R)-3,6-dimethyl-5-methylene-4-oxo-2-(4(trifluoromethyl)phenethyl)tetrahydro-2H-pyran-3-carboxylate], for which the IC50 in assay [1] (setting [3]) was determined as 55 µM.

`C=C1C(=O)[C@](C)(C(=O)OC)C(CCc2ccc(OC)cc2)O[C@@H]1C` (mixture of isomers) [Compound 4f, (±) methyl (2S,3R,6R)-2-(4-methoxyphenethyl)-3,6-dimethyl-5-methylene-4-oxotetrahydro2H-pyran-3-carboxylate]: the IC50 in assay [1] (setting [3]) worked out at 62 µM.

For the compound `C=C1C(=O)[C@@](C)(C(=O)OC)[C@@H](CCc2cccc(NC(C)=O)c2)O[C@H]1C` (racemic) [Compound 4g, (±) methyl (2S,3R,6R)-2-(3-acetamidophenethyl)-3,6-dimethyl-5-methylene-4-oxotetrahydro2H-pyran-3-carboxylate], the IC50 in assay [1] (setting [3]) is 11 µM.

Take `C=C1C(=O)[C@@](C)(C(=O)OC)[C@@H](CCc2cccc(F)c2)O[C@H]1C` (racemic) [Compound 4h, (±) methyl (2S,3R,6R)-2-(3-fluorophenethyl)-3,6-dimethyl-5-methylene-4-oxotetrahydro-2H pyran-3-carboxylate]: the IC50 in assay [1] (setting [3]) was > 100 µM.

With `C=C1C(=O)[C@@](C)(C(=O)OC)[C@@H](CCc2ccc(NC(C)=O)cc2)O[C@H]1CC(C)C` (racemic) [Compound 4i, (±) methyl (2S,3R,6R)-2-(4-acetamidophenethyl)-6-isobutyl-3-methyl-5-methylene-4oxotetrahydro-2H-pyran-3-carboxylate], the IC50 in assay [1] (setting [3]) was 45 µM.

Turning to `C=C1C(=O)[C@@](C)(C(=O)OC)[C@@H](CCc2ccc(NC(C)=O)cc2)O[C@H]1CCc1ccccc1` (racemic) [Compound 4j, (±) methyl (2S,3R,6R)-2-(4-acetamidophenethyl)-3-methyl-5-methylene-4-oxo-6phenethyltetrahydro-2H-pyran-3-carboxylate], the IC50 in assay [1] (setting [3]) is > 100 µM.

With `C=C1C(=O)[C@@](C)(C(=O)OC(C)C)[C@@H](CCc2ccc(NC(C)=O)cc2)O[C@H]1C` (racemic) [Compound 4k, (±) isopropyl (2S,3R,6R)-2-(4-acetamidophenethyl)-3,6-dimethyl-5-methylene-4oxotetrahydro-2H-pyran-3-carboxylate], the IC50 in assay [1] (setting [4]) was 45 µM.

Turning to `C=C1C(=O)[C@@](C)(C(=O)OCC2CC2)[C@@H](CCc2ccc(NC(C)=O)cc2)O[C@H]1C` (racemic) [Compound 4l, (±) cyclopropylmethyl (2S,3R,6R)-2-(4-acetamidophenethyl)-3,6-dimethyl-5-methylene-4oxotetrahydro-2H-pyran-3-carboxylate], in assay [1] (setting [4]), the IC50 amounted to 75 µM.

`C=C1C(=O)[C@](C)(C(=O)OCc2ccccc2)C(CCc2ccc(NC(C)=O)cc2)O[C@@H]1C` (mixture of isomers) [Compound 4m, (±) benzyl (2S,3R,6R)-2-(4-acetamidophenethyl)-3,6-dimethyl-5-methylene-4-oxotetrahydro2H-pyran-3-carboxylate]: in assay [1] (setting [4]), the IC50 amounted to 35 µM.

The compound `C=C1C(=O)[C@@](C)(C(=O)OCCCC)[C@@H](CCc2ccc(NC(C)=O)cc2)O[C@H]1C` (racemic) [Compound 4n, (±) butyl (2S,3R,6R)-2-(4-acetamidophenethyl)-3,6-dimethyl-5-methylene-4-oxotetrahydro2H-pyran-3-carboxylate] returned an IC50 in assay [1] (IC50, Table 2, C-3 group) of 85 µM.

As for `C=C1C(=O)[C@@](CC)(C(=O)OC)[C@@H](CCc2ccc(NC(C)=O)cc2)O[C@H]1C` (racemic) [Compound 4q, (±) methyl (2S,3R,6R)-2-(4-acetamidophenethyl)-3-ethyl-6-methyl-5-methylene-4oxotetrahydro-2H-pyran-3-carboxylate], the IC50 in assay [1] (setting [4]) stood at 15 µM.

Turning to `C=C1C(=O)[C@@](C(=O)OC)(C(C)C)[C@H](CCc2ccc(NC(C)=O)cc2)O[C@@H]1C` (racemic) [Compound 4r, (±) methyl (2S,3R,6R)-2-(4-acetamidophenethyl)-3-isopropyl-6-methyl-5-methylene-4oxotetrahydro-2H-pyran-3-carboxylate], the IC50 in assay [1] (setting [4]) worked out at 62 µM.

As for `C=C1C(=O)C(C)(C(=O)OC)C(CCc2ccc(NC(C)=O)cc2)OC1C` (single isomer, unassigned) [enantiopure para N-acetylphenethyl analogue], the IC50 in assay [1] (setting [2]) worked out at 0.9 µM.

`C=C1C(=O)C(C)(C(=O)OC)C(CCc2ccc(NC(C)=O)cc2)OC1C` (single isomer, unassigned) [opposite antipode]: the IC50 in assay [1] (setting [2]) worked out at 4.5 µM.

Consider `C=C1C(=O)[C@](C)(C(=O)OCCOC)[C@@H](CCc2ccc(NC(C)=O)cc2)O[C@H]1C` [Compound 4p], for which the IC50 in assay [1] (setting [4]) came to 25 µM.

As to `C=C1C(=O)O[C@@H]2/C=C(\C)CC/C=C(\C)CC[C@@H]12` [costunolide], the “adduct formation with tcTERT peptides” value in the assay on tcTERT is listed as “no adduct formation”.

Turning to `C=C1C(=O)O[C@@H]2C[C@@H](C)[C@@H]3C=CC(=O)[C@@]3(C)[C@@H](O)[C@H]12` [helenalin], in the assay on tcTERT, the “adduct formation with tcTERT peptides” value is given as “no adduct formation”.

Turning to `C=C1C(=O)[C@]2(C)C(=O)O[C@@]34C[C@H](C)C(C(=O)O)=C[C@@H]3CCC[C@@H](C)C[C@@H](C)[C@H]1O[C@H]24` [okilactomycin, reference compound], in assay [1] (setting [2]), the IC50 is 2.1 µM.

(Values after US11518750B2, “3-methylideneoxan-4-one compounds and substituted derivatives thereof as inhibitors of telomerase” (NORTHWESTERN UNIVERSITY, priority 2019, dated 2022).)
